Test results from patent US10288629B1, “Method of assessing growth hormone deficiency in humans by a macimorelin containing composition” (AEterna Zentaris, Inc., priority 2017, dated 2019).

Experiments:
[1] = target: T1, human GHS receptor (Homo sapiens, UniProt Q92847); settings: membrane preparations from human hypothalamus and pituitary gland; compared with ghrelin; cited from earlier work
T1 construct: membrane preparations containing the GHS-receptor derived from human hypothalamus and pituitary gland; from tissue; host or cells: human hypothalamus and pituitary gland membranes
T1 sequence (Q92847 whole entry): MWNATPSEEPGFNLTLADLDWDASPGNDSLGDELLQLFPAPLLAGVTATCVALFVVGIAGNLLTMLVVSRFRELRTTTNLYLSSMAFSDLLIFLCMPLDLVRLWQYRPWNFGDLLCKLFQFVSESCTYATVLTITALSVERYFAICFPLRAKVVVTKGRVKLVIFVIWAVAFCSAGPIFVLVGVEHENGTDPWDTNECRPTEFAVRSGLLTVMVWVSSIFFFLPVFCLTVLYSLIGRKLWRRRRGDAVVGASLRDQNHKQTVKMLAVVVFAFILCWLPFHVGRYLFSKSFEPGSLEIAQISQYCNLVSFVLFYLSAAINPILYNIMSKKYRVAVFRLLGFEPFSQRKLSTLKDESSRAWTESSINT

[2] = test system: peak GH concentrations; test: peak GH response in the macimorelin GHST and ITT; assay type: in vivo, human; settings: all AGHD likelihood groups A-D; N=139; FIG. 5
Experimental: Blood samples were collected before and 30, 45, 60, and 90 minutes after administration of macimorelin and before and 15, 30, 45, 60, 90 and 120 minutes after administration of insulin to the efficacy data set subjects and GH levels were determined for all samples.

[3] = set-up: species or system human; settings: in vivo
[4] = test system: GH level; test: repeatability of the macimorelin GHST; assay type: in vivo, human; settings: below or above cut-off point
Description: To assess the repeatability of the macimorelin GHST, 33 subjects with a valid first macimorelin test (core study) underwent a second macimorelin test (repeatability study extension).

[5] = test system: GH level; test: agreement of the Macimorelin GHST with the ITT for diagnosis of AGHD; assay type: in vivo, human; settings: cut-off 2.8 ng/mL macimorelin, 5.1 ng/mL ITT, N = 139
Experimental: The study protocol allowed for a 5 minutes time window for each of said time points, meaning that a blood sample collected for example within 25 to 35 min after GH provocation agent administration was […] collected for the 30 min time point.

[6] = macimorelin sample: peak of 0-90 min
[7] = macimorelin sample: peak of 45 & 60 min
[8] = macimorelin sample: peak of 60 & 90 min

For `CC(C)(N)C(=O)N[C@H](Cc1c[nH]c2ccccc12)C(=O)N[C@H](Cc1c[nH]c2ccccc12)NC=O` [Macimorelin, macimorelin], the “binding potency to the human GHS receptor” value [1] is given as “comparable to that of its natural ligand, ghrelin”, the “peak GH levels in the macimorelin GHST as compared to the ITT” value [2] is given as “higher peak GH levels” and the diarrhea ([3]; human) is given as 1.9%. It also gave a dizziness ([3]; human) of 3.9%, a dysgeusia ([3]; human) of 4.5% and a fatigue ([3]; human) of 3.9%. For the same compound, the feeling hot ([3]; human) was 1.3%, the headache ([3]; human) was 3.9% and the hunger ([3]; human) was 3.2%. It also gave a hyperhidrosis ([3]; human) of 1.3%, a nasopharyngitis ([3]; human) of 1.3% and a nausea ([3]; human) of 3.2%. The sinus bradycardia ([3]; human) was 1.3%, the “upper respiratory tract infection” value ([3]; human) was 1.9% and the “result of second macimorelin test matching result of first test” value ([4]; 33 subjects) was 94%. For the same compound, the “subjects with reproducible test outcome (number)” value ([4]; out of 33 subjects) was 31, the Negative % agreement ([5]; macimorelin sample: 30 min) was 73.85% and the Positive % agreement ([5]; macimorelin sample: 30 min) was 82.43%. For the same compound, the Total % agreement ([5]; macimorelin sample: 30 min) was 78.42%, the Negative % agreement ([5]; macimorelin sample: 45 min) was 86.15% and the Positive % agreement ([5]; macimorelin sample: 45 min) was 78.38%. It also gave a Total % agreement ([5]; macimorelin sample: 45 min) of 82.01%, a Negative % agreement ([5]; macimorelin sample: 60 min) of 95.31% and a Positive % agreement ([5]; macimorelin sample: 60 min) of 81.08%. For the same compound, the Total % agreement ([5]; macimorelin sample: 60 min) was 87.68%, the Negative % agreement ([5]; macimorelin sample: 90 min) was 84.62% and the Positive % agreement ([5]; macimorelin sample: 90 min) was 86.49%. It also gave a Total % agreement ([5]; macimorelin sample: 90 min) of 85.61%, a Negative % agreement [5, 6] of 95.38% and a Positive % agreement [5, 6] of 74.32%. It also gave a Total % agreement [5, 6] of 84.17%, a Negative % agreement [5, 7] of 95.38% and a Positive % agreement [5, 7] of 75.68%. For the same compound, the Total % agreement [5, 7] was 84.89%, the Negative % agreement [5, 8] was 95.38% and the Positive % agreement [5, 8] was 78.38%. For the same compound, the Total % agreement [5, 8] was 86.33%, the Negative % agreement ([5]; macimorelin sample: pre-dose) was 13.85% and the Positive % agreement ([5]; macimorelin sample: pre-dose) was 98.65%. For the same compound, the Total % agreement ([5]; macimorelin sample: pre-dose) was 58.99%.
With “ITT: insulin tolerance test: intravenous administration of insulin to induce hypoglycaemia, which leads to GH release; comparator GHST [reference compound]” the “Any TEAE (likely or possible related), % of subjects” value [3] was 94.9%, the “Any TEAE (likely or possible related), Frequency (number of subjects)” value [3] was 149 and the “Any TEAE (likely or possible related), N AEs” value [3] was 710. For the same compound, the “Any TEAE, % of subjects” value [3] was 96.2%, the “Any TEAE, N AEs (number of all AEs)” value [3] was 761 and the “Any test emergent severe AE, % of subjects” value [3] was 7%. For the same compound, the “severe TEAE asthenia, number of subjects” value [3] was 4, the “severe TEAE hunger, number of subjects” value [3] was 3 and the “severe TEAE hyperhidrosis, number of subjects” value [3] was 5. For the same compound, the “severe TEAE nervousness, number of subjects” value [3] was 2, the “severe TEAE somnolence, number of subjects” value [3] was 5 and the “severe TEAE tremor, % of subjects” value [3] was 0.6%. The “severe TEAE tremor, number of subjects” value [3] was 1.
